Results on 46 molecules are retold here after ChEMBL document CHEMBL1697723, “A predictive ligand-based Bayesian model for human drug-induced liver injury” (Drug Metab Dispos, 2010).

The subject of this data set is Hepatotoxicity. Kind of data set: Human drug-induced liver injury (DILI) modelling dataset from Ekins et al.

Take `CC(=O)c1ccc(S(=O)(=O)NC(=O)NC2CCCCC2)cc1` [ACETOHEXAMIDE]: the Hepatotoxicity result is “DILI positive (training set)”.
Regarding `CO[C@H]1/C=C/O[C@@]2(C)Oc3c(C)c(O)c4c(c3C2=O)C2=NC3(CCN(CC(C)C)CC3)NC2=C(NC(=O)/C(C)=C\C=C\[C@H](C)[C@H](O)[C@@H](C)[C@@H](O)[C@@H](C)[C@H](OC(C)=O)[C@@H]1C)C4=O` [RIFABUTIN], the Hepatotoxicity entry (Liver) is “DILI positive (test set)”.
On to `CCOc1ccc2ccccc2c1C(=O)N[C@@H]1C(=O)N2[C@@H]1SC(C)(C)[C@@H]2C(=O)[O-].O.[Na+]` [NAFCILLIN SODIUM], for which the Hepatotoxicity result was “DILI negative (test set)”.
The same measure, in the same setting: the entry for `CC12CC3CC(C)(C1)CC(N)(C3)C2` [MEMANTINE] is “DILI negative (training set)”; for `Cc1oncc1C(=O)Nc1ccc(C(F)(F)F)cc1` [LEFLUNOMIDE] it is “DILI positive (training set)”; for `CC[N+](C)(CC)CCOC(=O)C(O)(c1ccccc1)C1CCCCC1` (stereo unspecified) [OXYPHENONIUM] it is “DILI negative (training set)”.
Regarding `Oc1ccccc1Br`, the Hepatotoxicity entry is recorded as “DILI positive (test set)”.
For the molecule `Cc1ccc(C)c(OCCCC(C)(C)C(=O)O)c1` [GEMFIBROZIL], the Hepatotoxicity entry was “DILI positive (training set)”.
Still for that read-out and setting: the entry for `Cl.NC12CC3CC(CC(C3)C1)C2` [AMANTADINE HYDROCHLORIDE] is “DILI negative (training set)”; for `O=C(O)COc1ccc(C(=O)c2cccs2)c(Cl)c1Cl` it is “DILI positive (test set)”; for `C[C@H]1[C@H](NC(=O)/C(=N\OC(C)(C)C(=O)O)c2csc(N)n2)C(=O)N1S(=O)(=O)O` [AZTREONAM] it is “DILI negative (training set)”.
On the same count and under the same terms, the entry for `CCC1(c2ccccc2)CCC(=O)NC1=O` (stereo unspecified) [GLUTETHIMIDE] is “DILI positive (test set)”; for `CC1(C)S[C@@H]2[C@H](NC(=O)Cc3ccccc3)C(=O)N2[C@H]1C(=O)[O-].[Na+]` [PENICILLIN G SODIUM] it is “DILI positive (training set)”.
Same read-out and setting: the entry for `C[C@]12CC[C@@H]3c4ccc(O)cc4CC[C@H]3[C@@H]1CC[C@@H]2O` [ESTRADIOL] is “DILI negative (training set)”.
`O=C1CN(/N=C/c2ccc([N+](=O)[O-])o2)C(=O)N1` [NITROFURANTOIN]: where the note is “Liver”, the Hepatotoxicity entry was “DILI positive (test set)”.
As for `CC1=CC(=O)c2ccccc2C1=O` [MENADIONE], the Hepatotoxicity entry is listed as “DILI positive (test set)”.
On the same count and under the same terms, the entry for `Nc1c(CC(=O)O)cccc1C(=O)c1ccc(Br)cc1` [BROMFENAC] is “DILI positive (test set)”.
Still for that read-out and setting: the entry for `Cc1ccc(-c2nc3ccc(C)cn3c2CC(=O)N(C)C)cc1` [ZOLPIDEM] is “DILI negative (test set)”.
In the case of `CC1(C)S[C@@H]2[C@H](NC(=O)[C@H](NC(=O)N3CCN(S(C)(=O)=O)C3=O)c3ccccc3)C(=O)N2[C@H]1C(=O)[O-].[Na+]` [MEZLOCILLIN SODIUM], where the note is “Liver”, the Hepatotoxicity entry is on record as “DILI positive (test set)”.
Turning to `CC(=O)Nc1ccc(O)cc1` [ACETAMINOPHEN], the Hepatotoxicity result was “DILI positive (training set)”.
On the same count and under the same terms, the entry for `CC(C)(Sc1cc(C(C)(C)C)c(O)c(C(C)(C)C)c1)Sc1cc(C(C)(C)C)c(O)c(C(C)(C)C)c1` [PROBUCOL] is “DILI negative (test set)”.
The same measure, in the same setting: then `CCOC(=O)c1ncn2c1CN(C)C(=O)c1cc(F)ccc1-2` [FLUMAZENIL], with “DILI negative (training set)”.
Consider `Nc1ccc(C(=O)[O-])cc1.[K+]` [AMINOBENZOATE POTASSIUM], for which the Hepatotoxicity entry is reported as “DILI negative (training set)”.
On to `Cl[C@H]1[C@H](Cl)[C@@H](Cl)[C@H](Cl)[C@@H](Cl)[C@@H]1Cl` [BETA-HEXACHLOROCYCLOHEXANE], for which the Hepatotoxicity result (Liver) is reported as “DILI positive (training set)”.
Consider LACTOSE, ANHYDROUS, for which the Hepatotoxicity result is “DILI negative (test set)”.
Still for that read-out and setting: then `C[C@H]1C[C@H]2[C@@H]3CCC4=CC(=O)C=C[C@]4(C)[C@@]3(F)[C@@H](O)C[C@]2(C)[C@@]1(O)C(=O)CO` [BETAMETHASONE], with “DILI negative (training set)”; and `NCCCCCC(=O)O` [AMINOCAPROIC ACID], with “DILI negative (test set)”; and `CN[C@H](CC(C)C)C(=O)N[C@H]1C(=O)N[C@@H](CC(N)=O)C(=O)N[C@H]2C(=O)N[C@H]3C(=O)N[C@H](C(=O)N[C@H](C(=O)O)c4cc(O)cc(O)c4-c4cc3ccc4O)[C@H](O)c3ccc(c(Cl)c3)Oc3cc2cc(c3O[C@@H]2O[C@H](CO)[C@@H](O)[C@H](O)[C@H]2O[C@H]2C[C@](C)(N)[C@H](O)[C@H](C)O2)Oc2ccc(cc2Cl)[C@H]1O` [VANCOMYCIN], with “DILI positive (training set)”.
Turning to `NS(=O)(=O)c1cc2c(cc1Cl)NCNS2(=O)=O` [HYDROCHLOROTHIAZIDE], the Hepatotoxicity result is reported as “DILI positive (training set)”.
For the molecule `Nc1cc(-c2ccncc2)c[nH]c1=O` [INAMRINONE], the Hepatotoxicity entry was “DILI positive (training set)”.
For `CC(=O)O[C@H]1C(=O)[C@@]2(C)[C@H]([C@H](OC(=O)c3ccccc3)[C@]3(O)C[C@H](OC(=O)[C@H](O)[C@@H](NC(=O)c4ccccc4)c4ccccc4)C(C)=C1C3(C)C)[C@]1(OC(C)=O)CO[C@@H]1C[C@@H]2O` [PACLITAXEL], the Hepatotoxicity result (Liver) was “DILI positive (test set)”.
`Cn1nnc2c(C(N)=O)ncn2c1=O` [TEMOZOLOMIDE]: the Hepatotoxicity entry was “DILI negative (training set)”.
Take `CN(C)C(=O)Oc1ccc[n+](C)c1.[Br-]` [PYRIDOSTIGMINE BROMIDE]: the Hepatotoxicity result is “DILI negative (training set)”.
Same read-out and setting: then `COCC(=O)O[C@]1(CCN(C)CCCc2nc3ccccc3[nH]2)CCc2cc(F)ccc2[C@@H]1C(C)C` [MIBEFRADIL], with “DILI negative (test set)”; and `C=C[C@H]1C[N@@]2CC[C@H]1C[C@H]2[C@H](O)c1ccnc2ccc(OC)cc12` [QUININE], with “DILI positive (training set)”.
Regarding `O=C(OCC(O)CO)c1ccccc1Nc1ccnc2cc(Cl)ccc12` (stereo unspecified) [GLAFENINE], where the note is “Liver”, the Hepatotoxicity entry was “DILI positive (training set)”.
Turning to `c1ccc2c(c1)Nc1ccccc1S2` [PHENOTHIAZINE], the Hepatotoxicity entry is given as “DILI positive (test set)”.
Same read-out and setting: then `O=C1O[C@H]([C@@H](O)CO)C(O)=C1O` [ASCORBIC ACID], with “DILI negative (training set)”; and `CCC1(c2ccccc2)C(=O)NC(=O)N(C)C1=O` (stereo unspecified) [MEPHOBARBITAL], with “DILI positive (test set)”; and `O=C(Cc1cccs1)N[C@@H]1C(=O)N2C(C(=O)[O-])=C(C[n+]3ccccc3)CS[C@H]12` [CEPHALORIDINE], with “DILI positive (test set)”.
The same measure, in the same setting: then `CC(=O)Oc1ccccc1C(=O)O` [ASPIRIN], with “DILI negative (training set)”; and `O=c1[nH]c(=O)n([C@@H]2O[C@H](CO)[C@@H](O)[C@@H]2F)cc1I` [FIALURIDINE], with “DILI positive (test set)”; and `Cc1ccc(S(=O)(=O)NC(=O)NN2CCCCCC2)cc1` [TOLAZAMIDE], with “DILI positive (test set)”.
Consider `CC(C)Cc1ccc(C(C)C(=O)O)cc1` (stereo unspecified) [IBUPROFEN], for which the Hepatotoxicity entry is on record as “DILI negative (test set)”.
As to `ClC(Cl)Cl` [CHLOROFORM], under “Liver”, the Hepatotoxicity entry was “DILI positive (test set)”.
The same measure, in the same setting: the entry for `CC(C)c1cccc(C(C)C)c1O` [PROPOFOL] is “DILI negative (test set)”.
